Experiments:
[1] = cited from earlier work
T84 cells = assay: Short-circuit current (ISC, Cl- secretion) in T84 cells in Ussing chambers; assay type: cell-based, human; settings: for effect of antagonist on currents induced by imatinib and adenosine: 10 μM antagonist after 100 μM imatinib and 1 μM adenosine; for increase in ISC on basolateral addition of the compound alone: NBMPR 10 μM, imatinib 100 μM, no extracellular adenosine added; for increase in ISC on basolateral addition of the compound alone / currents on apical addition of the TKI: erlotinib 20 μM, gefitinib 100 μM
Experimental: T84 cells were routinely grown in DMEM/F12 (1:1) cell culture media with 10% FBS, 1 mM sodium pyruvate, 1× penicillin/streptomycin and 10 mM HEPES. For experiments described in this report, T84 cells were grown on 12 mm snapwell inserts for 6-8 days with media changes every 2-3 days. […] Compounds were added in small aliquots to the basolateral or apical chamber and the secretory response was measured as an increase in short-circuit current (ISC) due to Cl^− secretion and was monitored as a function of time.

[2] = patients treated with erlotinib; cited from earlier work
[3] = test system: adenine nucleobase transporters; settings: read-out: IC50 for inhibition of adenine transport; 1 μM [3H]adenine, hRPTCs, sodium buffer pH 7.4, 2 minute incubation
Experimental: Human renal proximal tubule cells (hRPTCs) were seeded in 12-well plates at densities of 10^5 cells/well and grown for 7 days with medium changes every 3-4 days. On the day of experiments, growth medium was aspirated and cells were washed twice with 1.5 ml of 20 mM Tris-HCl buffer (pH 7.4) containing 150 mM NaCl, 1.2 mM MgCl2 and 1 mM CaCl2 (hereafter referred to as sodium buffer). […] At the end of 2 minute incubations, cells were washed twice with sodium buffer and intracellular accumulation of [^3H]adenine was determined by solubilizing cells with 5% Triton-X-100 and subsequent determination of radioactivity in a scintillation counter. Data are presented as percent of values obtained in the absence of a competitor (controls). Resulting concentration-effect curves were analyzed by nonlinear regression analysis using Graph Pad Prism software version 4.0 (Graph Pad Software Inc., San Diego, CA) to obtain IC50 values for the compounds.

SMILES: O=c1[nH]cc(F)c(=O)[nH]1 [5-FU, 5-fluorouracil]
- half-life [1]: 20 min

SMILES: Cn1c(=O)c2[nH]c(-c3ccccc3)nc2n(C)c1=O [8-PT, 8-phenyltheophylline]
- effect of antagonist on ISC induced by adenosine then NBMPR (T84 cells; 10 μM 8-PT after 1 μM adenosine and 10 μM NBMPR, basolateral, FIG. 4): ISC returned to baseline levels
- effect of antagonist on currents induced by erlotinib and adenosine (T84 cells; 10 μM 8-PT after 20 μM erlotinib and 1 μM adenosine, basolateral, FIG. 8): abolished
- effect of antagonist on currents induced by gefitinib and adenosine (T84 cells; 10 μM 8-PT after 100 μM gefitinib and 1 μM adenosine, basolateral, FIG. 9): abolished
- effect of antagonist on currents induced by apical erlotinib or gefitinib (T84 cells; 10 μM 8-PT apical, FIG. 12): abolished
- induction of ISC by adenosine after pretreatment with antagonist (T84 cells; 10 μM 8-PT basolateral prior to 1 μM adenosine basolateral, FIG. 7 panel C): no induction of ISC
- effect of antagonist on currents induced by imatinib and adenosine (T84 cells; basolateral, FIG. 10): abolished
- effect of antagonist on ISC induced by NBMPR then adenosine (T84 cells; 8-PT after 10 μM NBMPR and 1 μM adenosine, basolateral, FIG. 6): reversed the increase in ISC to baseline activity

SMILES: O=[N+]([O-])c1ccc(CSc2ncnc3c2ncn3[C@@H]2O[C@H](CO)[C@@H](O)[C@H]2O)cc1 [NBMPR, nitrobenzylmercaptopurine riboside]
- ISC on addition of NBMPR after adenosine (T84 cells; 10 μM NBMPR after 1 μM adenosine, basolateral, FIG. 4): much higher ISC
- induction of currents by NBMPR (retest) (T84 cells; 20 μM NBMPR basolateral, FIG. 7 panel B): Induction of currents
- increase in ISC on basolateral addition of the compound alone (T84 cells; basolateral): steady increase in ISC with time

SMILES: Nc1ncnc2c1ncn2[C@@H]1O[C@H](CO)[C@@H](O)[C@H]1O [adenosine]
- ISC on addition of adenosine after NBMPR (T84 cells; 1 μM adenosine after 10 μM NBMPR, basolateral, FIG. 6): substantial increase in ISC
- currents on addition of adenosine after erlotinib (T84 cells; 1 μM adenosine after 20 μM erlotinib, basolateral, FIG. 8): substantial induction of currents
- currents on addition of adenosine after gefitinib (T84 cells; 1 μM adenosine after 100 μM gefitinib, basolateral, FIG. 9): substantial induction of currents
- currents on addition of adenosine after imatinib (T84 cells; 1 μM adenosine after 100 μM imatinib, basolateral, FIG. 10): substantial induction of currents
- currents on addition of adenosine to apical and both sides (T84 cells; 1 μM adenosine, apical or both sides versus basolateral, FIG. 11): much higher currents than on the basolateral side alone
- ISC with increasing concentrations of adenosine (T84 cells; adenosine basolateral in 1 μM increments, FIG. 7 panel A): ISC increased

SMILES: C#Cc1cccc(Nc2ncnc3cc(OCCOC)c(OCCOC)cc23)c1 [erlotinib]
- currents on apical addition of the TKI (T84 cells; FIG. 12): slow increase in currents
- increase in ISC on basolateral addition of the compound alone (T84 cells; basolateral): increase in ISC similar to that of NBMPR
- patients who develop diarrhea [2]: 30%

SMILES: COc1cc2ncnc(Nc3ccc(F)c(Cl)c3)c2cc1OCCCN1CCOCC1 [gefitinib]
- currents on apical addition of the TKI (T84 cells; FIG. 12): slow increase in currents
- increase in ISC on basolateral addition of the compound alone (T84 cells; basolateral): slow but steady increase in ISC similar to that of NBMPR

SMILES: CCN(CC)CCNC(=O)c1c(C)[nH]c(/C=C2\C(=O)Nc3ccc(F)cc32)c1C [sunitinib]
- IC50 [3]: 50 µM

SMILES: Cn1c(=O)c2[nH]cnc2n(C)c1=O [theophylline]
- effect of antagonist on currents induced by imatinib and adenosine (T84 cells; basolateral, FIG. 10): abolished
- effect of antagonist on adenosine induced increase in ISC (T84 cells; 10 μM antagonist, adenosine alone, FIG. 5): blocked

SMILES: COc1cc2c(Nc3ccc(Br)cc3F)ncnc2cc1OCC1CCN(C)CC1 [vandetanib]
- IC50 [3]: ≥ 100 µM

— US12576085B2, “Combination comprising an ATP analog and an adenosine receptor antagonist or a nucleobase/nucleoside analog for the treatment of cancer” (priority 2010, dated 2026)
